Consider ten compounds from US20250177354A1, “THERAPEUTIC COMBINATIONS, COMPOSITIONS, AND METHODS FOR DESIGNING AND PRODUCING EN[…]” (Mindstate Design Labs, Inc., priority 2022, published 2025).

SMILES strings stand for the structures. Entries after “also recorded” stand apart in the source; their conditions may differ.

For series [1], the system named is subjects. Conditions: subjects administered MDMA; cited from earlier work.
For series [2] the following is noted: cited from earlier work.
For series [3], the system named is subjects. Conditions: cited from earlier work.
A further series deals with individual. Put plainly: Self-administration of combinations and single-compound controls, subjective reports recorded by the individual. The format is in vivo, human. As for the experimental part: In several examples of such administration, the combinations as follows were self-administered, with the subjective reports recorded by the individual during and/or following such administration, as below.
The following example was performed for purposes of and is presented as a control.
In an example, the combination as set forth below was self-administered, with the report as follows.
The working example below was performed for purposes of and is presented as a control.
The working examples below were also performed for purposes of and are presented as controls, using an escalating dose of a single primer alone, applicable to this and other Examples.

For a further series, the system named is α2-adrenergic receptor. Conditions: cited from earlier work.
The next series has as its system I1. The note with it: cited from earlier work.
A further series deals with I1 Imidazoline Sites. The note with it: cited from earlier work; for Selectivity Ratio: I1 relative to α2 (α2 value / I1 value).
[4] abbreviates: control: 4.0 mg 5-MeO-MiPT alone.
[5] abbreviates: control: 8.0 mg 5-MeO-MiPT alone.
Setting [6] is: control: 10.0 mg 5-MeO-MiPT alone.

For the compound `CNC(C)Cc1ccc2c(c1)OCO2` (racemic) [MDMA, (RS)-1-(1,3-Benzo-dioxol-5-yl)-N-methylpropan-2-amine], the “mental state decoding (mind reading) of social cues” value in the series with subjects [1] is “enhanced mental state decoding of positive stimuli, such as friendliness, and impaired the accuracy of mind reading for negative stimuli”. Also, the “effect on a stutter (case, Shulgin & Shulgin, 1991)” value in series [2] (graduate student) is given as “dramatic improvements in a stutter”. Further, in series [2] (in vivo), the “efficacy in autistic social impairment (systematic review, Chaliha, 2021)” value is listed as “efficacious as a pharmacological treatment”. For the same compound, the subject-reported sociability entry in the series with subjects [3] (following administration of MDMA) is given as “increases in sociability”. The “brain imaging responses to facial expressions” value in the series with subjects [3] (subjects administered MDMA) is “attenuated responses to angry facial expressions and enhanced responses to happy expressions”.

As to `COc1ccc2[nH]cc(CCN(C)C(C)C)c2c1` [Example 5-MeO-MiPT, N-isopropyl-5-methoxy-N-methyltryptamine], the “physical discomfort (self-report)” value is “my brain was so heavy and tired” in the series on individual (setting [4]); “my body was uncoordinated, and I trembled a lot” in the series with individual (setting [5]); “My stomach was so upset that I had to vomit” in the series with individual (setting [6]). The “subjective effects (self-report)” value in the series with individual (setting [4]) is “My emotion is quite neutral, not much different from the normal state”; with individual (control: 6.0 mg 5-MeO-MiPT alone), “generally emotionally neutral”; in the series with individual (setting [5]) it was “There was no emergence of a stable mental state; also recorded: There was not much feeling”; in the series with individual (setting [6]), “void of emotion and mental activities”.

In the case of `CC1CC(NC(C2CC2)C2CC2)=NC1C` (centres unmarked) [LNP509, dicyclopropylmethyl-(4,5-dimethyl-4,5-dihydro-3H-pyrrol-2-yl)-amine], in the series on α2-adrenergic receptor, the “affinity or activity for the α2-adrenergic receptor” value (shortened to “affinity or activity”) is “no detectable affinity or activity”.

Consider `Cc1c(Cl)cccc1NC1=NCC(C)C1` (centres unmarked) [LNP599], for which, in the series with α2-adrenergic receptor, the “affinity or activity” value was “no detectable affinity or activity”. Further, in the series on I1, the “affinity for I1” value is reported as “nanomolar affinity”.

With `CC1CNC(Nc2c(Cl)cccc2Cl)=N1` (centres unmarked) [LNP630, (2,6-dichloro-phenyl)-(4-methyl-4,5-dihydro-1H-imidazol-2-yl)-amine], in the series on α2-adrenergic receptor, the “affinity or activity” value is given as “no detectable affinity or activity”.

Turning to `CC1CCC(Nc2cc(N=[N+]=[N-])c(I)cc2Cl)=N1` (centres unmarked) [LNP906, 2-(5-azido-2-chloro-4-iodo-phenyl-amino)-5-methyl-pyrroline], the “affinity or activity” value in the series with α2-adrenergic receptor is listed as “no detectable affinity or activity”.

On to `CC1CCC(Nc2ccc(I)cc2Cl)=N1` (centres unmarked) [LNP911, 2-(2-chloro-4-iodo-phenylamino)-5-methyl-pyrroline], for which the “affinity or activity” value in the series with α2-adrenergic receptor is listed as “no detectable affinity or activity”.

As for `CC(Oc1c(Cl)cccc1Cl)C1=NCCN1` (centres unmarked) [Lofexidine], the “Selectivity Ratio” value with I1 Imidazoline Sites was 3.63.

With `COc1nc(C)nc(Cl)c1NC1=NCCN1` [Moxonidine, 4-Chloro-N-(4,5-dihydro-1H-imidazol-2-yl)-6-methoxy-2-methylpyrimidin-5-amine], in the series with individual (control: 0.2 mg Moxonidine alone, 12:30 pm), the “subjective effects (self-report)” value was “more focused, probably more centered, less distracted by thinking; also recorded: All very subtle but detectable”.

Turning to `C1COC(NC(C2CC2)C2CC2)=N1` [Rilmenidine, N-(dicyclopropylmethyl)-4,5-dihydro-1,3-oxazol-2-amine], in the series with I1 Imidazoline Sites, the “Selectivity Ratio” value is given as 29.51. Besides, in the series with I1 Imidazoline Sites (I1 relative to α2 receptors), the “selectivity for I1 relative to α2 receptors” value is reported as “about 30 fold”. Besides, the “subjective effects (self-report)” value in the series with individual (control: 1.0 mg Rilmenidine alone, 9:00 pm) is reported as “relaxing, my chest less strained; also recorded: the effect was subtle”.
